Columns and labels:
[1] = test system: U46619-induced bronchoconstriction; assay: Bronchodilatation in vivo: U46619-induced bronchoconstriction in anaesthetised guinea-pigs; parameters: species or system guinea-pig (male Dunkin Hartley); settings: Cavia porcellus, iv; i.v. bolus; U46619 infused i.v. 2.5 nmol/min; peak inhibition; read-out: BD50 (dose required to reduce the U46619-induced bronchoconstriction by 50%)
Experimental: Male guinea-pigs of the Dunkin Hartley strain (500-600 g) were anaesthetised with Sagatal (pentobarbital sodium) (60 mg/kg).
The dose of compound required to reduce the U46619-induced bronchoconstriction by 50% is given as the BD50.

[2] = molecular target: T1, calmodulin insensitive cyclic GMP phosphodiesterase (Sus scrofa, UniProt A0A287B475); assay: Inhibition of phosphodiesterase (PDE), cyclic GMP hydrolysis; format: biochemical, pig; settings: 1 μM cyclic GMP, pH 7.5, 37° C.
T1 construct: Following dissection arteries were flash frozen in liquid nitrogen; from tissue; host or cells: pig pulmonary arteries or aortas, partially purified on DEAE-Sepharose, calmodulin-agarose and cibacron blue-agarose
Experimental: (§1) Eight pig hearts/lungs were collected from the abattoir and kept on ice until the pulmonary arteries or aortas could be dissected and excess fat removed. 120 g of tissue was dissected. Unless otherwise stated all procedures were done at 4° C. Following dissection arteries were flash frozen in liquid nitrogen and stored at -70° C. until required. On the day of homogenisation, tissue was cooled with liquid nitrogen and broken into small pieces by striking with a hammer. The tissue was then homogenised in 15 mM BIS-TRIS, 1 μg/ml leupeptin and antipain, 2 μg/ml pepstatin A, 5 μM benzamidine, 2 mM EDTA (ethylenediaminetetraacetic acid) and 2 mM dithiothreitol, pH 6.5. Phenylmethanesulphonylfluoride (PMSF) was added to a final concentration of 50 μM just prior to homogenisation. The homogenate was then centrifuged for 20 minutes at 30,000 g. Supernatant was filtered firstly through glass wool and then a 0.45 μm filter. […] The column was washed with 150 mls of homogenisation buffer and PDE activities eluted with 150 ml of homogenisation buffer containing 100 mM sodium acetate. Six 25 ml fractions were collected, the flow rate throughout was 80 ml/hr.
Fractions 2 and 3 were pooled and BIS-TRIS, MgCl2, CaCl2 added to final concentrations of 50 mM, 7 mM and 5 mM respectively. PMSF, leupeptin, antipain and pepstatin A were also added at the concentrations described above for these components. The pH of this pooled sample was corrected to 6.9.
The sample was applied, at a flow rate of 3 ml/hr, to a tandem column set up. The first column in the tandem was a 5 ml calmodulin-agarose column (Sigma) and the second a 1.5 ml cibacron blue 3GA-agarose column (Sigma). Both columns were pre-equilibrated with 50 mM BIS-TRIS, 5 mM MgCl2, 5 mM CaCl2, 5 mM benzamidine, 2 mM dithiothreitol pH 6.9. Following application of the sample the columns were washed with 20 ml of equilibration buffer.
The cibacron blue-agarose column was then disconnected and washed with a variety of buffers as indicated below (Buffer A=50 mM BIS-TRIS, 5 mM benzamidine, 2 mM dithiotheitol pH 7.0).
20 ml Buffer A+2M NaCl, 5 mM MgCl2
20 ml Buffer A+2M NaCl, 10 mM EDTA
PDE activity bound to the column was eluted with eight 2.5 ml aliquots of Buffer A containing 2M NaCl, 10 mM EDTA and 10 mM cGMP. Fractions found to contain PDE activity were pooled and concentrated to approximately 1/3 the original volume by dialysis for 2 hr against Buffer A:glycerol (50:50) containing 15 mM 2-mercaptoethanol, 2 mM EDTA. After dialysis the concentration of cGMP in the fraction was reduced by treatment using a PD-10 column (Pharmacia) using dialysis buffer.
The fraction produced was stored at -20° C. and for experiments diluted 50-fold and used as the source of PDE activity for the assay of compounds.
The standard reaction mixture contained, in a final volume of 100 μl,
1 μM 3', 5'-cGMP (including 0.1 μCi ^3 H-cGMP)
and buffered with 50 mM TRIS/5 mM MgCl2 pH 7.5. The reaction was initiated with enzyme, and was carried out at 37° C. for 5-10 minutes. The reaction was terminated by placing tubes in a boiling water bath for 2 minutes. […] Unreacted ^3 H-cGMP was washed from the column with 10×1 ml HEPES/NaCl buffer. Labelled […] was eluted into a scintillation vial with 6 ml 0.25M acetic acid and counted in a scintillation counter using 10 ml Instagel (Packard). […] Assays were performed in duplicate and values corrected for blanks of <2%.

[3] = test system: PDE activity isolated from pig pulmonary arteries or aortas; assay: Properties of PDE activity: substrate kinetics; format: biochemical
Experimental: as §1
Fractions 2 and 3 were pooled and BIS-TRIS, MgCl2, CaCl2 added to final concentrations of 50 mM, 7 mM and 5 mM respectively. PMSF, leupeptin, antipain and pepstatin A were also added at the concentrations described above for these components. […]

[4] = test system: hindquarter vascular resistance; assay: Vasodilatation in vivo: hindquarter blood flow in anaesthetised rats; parameters: species or system rat (male Wistar); settings: Rattus norvegicus, iv, bolus i.v., read-out: EDHQ50 (dose required to produce a 50% increase in hindquarter blood flow)
Experimental: Male Wistar rats (300 g) were anaesthetised with a sodium 5-ethyl-5-(1-methylpropyl)-2-thiobarbiturate/sodium pentobarbitone mixture i.p. (62.5 and 22.5 mg/kg respectively). The trachea was cannulated and the rats breathed spontaneously air enriched with O2 (5 ml/min). Blood pressure was recorded from a carotid artery and a jugular vein was cannulated for the administration of compounds. The temperature of the animal was maintained at 37° C. by the use of an electric blanket. […] The perfusion circuit was primed with 5% bovine serum albumin dissolved in 0.9% sodium chloride solution, pH adjusted to 7.4. Initially the pump rate was set between 10 and 15 ml/min to match the hind quarter perfusion pressure to that of the systemic circulation. Once set the pressure remained unaltered for the rest of the experiment. A change in the speed of the pump (equivalent to hindquarter blood flow) was used to assess the changes in hindquarter vascular resistance.
All compounds were administered as a bolus i.v. and from the dose response curves the dose required to produce a 50% increase in hindquarter blood flow (EDHQ50) was determined in μmoles/kg.

[5] = test system: guinea-pig isolated trachea; assay: Anti-allergic activity in vitro: ovalbumin-induced contraction of isolated trachea from sensitized guinea pigs; parameters: species or system guinea pig (male Hartley); settings: for activity at 100 µM / Emax at 100 µM: Cavia porcellus, mean ± S.E.; for activity at 100 µM: 0.2 h, 30 min pretreatment, 12 minutes after OA (0.1 μg/ml), decline P<0.05, read-out: OA-induced contractile force as percentage of vehicle-treated control; for Emax at 100 µM: prior to OA challenge, N=4, read-out: reduction of basal tone, as a percentage of the maximum response to carbachol; for inhibition of antigen-induced contraction (in words): guinea-pig isolated trachea, 100 μM
Experimental: The animals were injected intramuscularly with 0.7 ml of a 5.0% OA solution prepared in isotonic saline. Four weeks after sensitization tracheas were removed and cut into spiral strips. Each trachea was cut half, placed in 10-ml water-jacketed tissue baths and attached with biological tissue clips via silk suture to force displacement transducers for recording isometric tension. One half of each trachea served as a control for the corresponding drug-treated tissue. […] The tissue preparations were placed under 2 g passive tension and equilibrated for 60 minutes, during which time they were washed every 15 minutes with fresh buffer. Each tissue was pretreated for 45 minutes with meclofenamic acid (1 μM).
Tissues were pretreated with the compound under test (100 μM), or vehicle (0.4 mM NaOH) for 30 minutes prior to the addition of OA. OA (0.1 μg/ml) was added to all tissues and the contraction was monitored for 15 minutes. […] To evaluate effects of the test compounds, the degree of contraction was calculated 2 and 12 minutes after the addition of OA. OA-induced contraction of drug-treated tissues was expressed as a percentage of the response of vehicle-treated, paired controls.
Results are expressed as a mean ±S.E. of 4 experiments. Statistical significance of differences between the means of control and drug-treated groups was determined using a paired Student's t test.

[6] = test system: antigen-induced bronchoconstriction; assay: Anti-allergic activity in vivo: ovalbumin-induced bronchoconstriction in sensitized anesthetized guinea pigs; parameters: species or system guinea pig (adult male albino Hartley); settings: 100 μmol/kg intraduodenal
Experimental: Adult male albino Hartley strain guinea pigs weighing 400-600 g were actively sensitized to OA according to the procedure hereinbefore described. To measure pulmonary mechanics, a polyethylene catheter was inserted into the trachea of anesthetized (sodium pentobarbital, 35 mg/kg, i.p.) animals and airflow was measured via a heated pneumotachograph in combination with a differential pressure transducer connected to the pneumotachograph. Airflow and transpulmonary pressure signals were fed into an on-line pulmonary mechanics computer which integrated the flow signal to obtain tidal volume. Total pulmonary resistance (RL) and dynamic lung compliance (CDYN) were calculated at isovolumetric points according to the method of Amdur and Mead (Am. J. Physiol. 192:364-368, 1958).
A compound under test was dissolved in 25 mM NaHCO3 plus one drop of polyethylene glycol 400 to a concentration of 100 mM. Based on the weight of the animal, the appropriate amount of solution was removed and the volume brought up to 1 ml with 25 mM NaHCO3. For the intraduodenal administration of test compounds, a small midline incision was made in the abdomen, the duodenum was exposed, and a butterfly needle attached to plastic tubing was inserted. All solutions were adjusted to the same volume (1 ml) and administered through the butterfly needle and followed with 0.5 ml of distilled water. The needle was then removed and the abdominal incision was stapled to prevent heat loss.
Aerosols of OA were generated to deliver approximately 0.375 μl/breath. Pressure, flow rate and sensitivity were set such that a maximum pleural pressure of 20 cm water was attained during inhalation. One hour after the administration of the test compounds, quinea pigs were challenged with 5 inhalations of OA (0.5 mg/ml) via the tracheal cannula and changes in CDYN and RL were monitored for 10 minutes. […]
Results are expressed as a mean ± S.E. of 4 experiments. Statistical significance of differences between the means of control and drug-treated groups was determined using a unpaired Student's t test.

Row | Structure (SMILES) | ED50 [1] [µmol/kg] | IC50 [2] [µM] | other results
1 | CCCCOc1ccccc1-c1nc2[nH]c(=O)[nH]c2c(=O)[nH]1 [Example 8, 2-(2-Butoxyphenyl)purine-6,8-dione] | 1.5 | 6.79 | 
2 | CCCCOc1ccccc1-c1nc2nc[nH]c2c(=O)[nH]1 [Example 3, 2-(2-Butoxyphenyl)-6-purinone] | 3.8 | 5.04 | 
3 | Nc1nc2c(ncn2[C@@H]2O[C@@H]3COP(=O)(O)O[C@H]3[C@H]2O)c(=O)[nH]1 [cGMP] |  |  | Ratio of cGMP/cAMP hydrolysis ([3]; 1 μM substrate): 30; Km ([3]; substrate of the isolated PDE): 1.3 µM
4 | CCCOc1ccccc1-c1nc2[nH]c(=O)[nH]c2c(=O)[nH]1 [Example 5, 2-(2-Propoxyphenyl)purine-6,8-dione] | 1 | 1.25 | ED50 [4]: 3.7 µmol/kg; activity at 100 µM [5]: 60 ± 4%; Emax at 100 µM [5]: 24 ± 7%; inhibition of antigen-induced contraction (in words) [5]: inhibit antigen-induced contraction of the guinea-pig isolated trachea
5 | CCOc1ccccc1-c1nc2nc[nH]c2c(=O)[nH]1 [Example 2, 2-(2-Ethoxyphenyl)-6-purinone] | 6.5 | 4.49 | 
6 | CC(C)COc1ccccc1-c1nc2[nH]c(=O)[nH]c2c(=O)[nH]1 [Example 9, 2-(2-Isobutoxypheny)purine-6,8-dione] | 4.5 | 3.64 | 
7 | CCOc1ccccc1-c1nc2[nH]c(=O)[nH]c2c(=O)[nH]1 [Example 7, 2-(2-Ethoxyphenyl)purine-6,8-dione] | 3.6 | 5.26 | 
8 | CC(C)COc1ccccc1-c1nc2nc[nH]c2c(=O)[nH]1 [Example 4, 2-(2-Isobutoxyphenyl)-6-purinone] | 5.3 | 1.74 | 
9 | CCCOc1ccccc1-c1nc2nc[nH]c2c(=O)[nH]1 [Example 1, 2-(2-Propoxyphenyl)-6-purinone] | 3.6 |  | ED50 [4]: 10.8 µmol/kg; activity at 100 µM [5]: 46 ± 9%; Emax at 100 µM [5]: 17 ± 3%; inhibition of antigen-induced contraction (in words) [5]: inhibit antigen-induced contraction of the guinea-pig isolated trachea; antigen-induced bronchoconstriction (in words) ([6]; 60 minutes before OA challenge, N=4): significantly reduced antigen-induced bronchoconstriction; increase in total pulmonary resistance (RL) after OA challenge ([6]; 60 minutes before OA, 5 minutes after challenge, N=4, mean ± S.E., P<0.05 vs. vehicle (vehicle 162±40%)): 51±26%; dynamic lung compliance (CDYN) after OA challenge (in words) ([6]; 60 minutes before OA, 5 minutes after challenge, P<0.01 vs. vehicle): unchanged from baseline
